We go through twelve molecules from patent US5223509A, “β-carbolines as cholecystokinin and gastrin antagonists” (priority 1992, dated 1993).

Broadly, the IC50 is the concentration that inhibits the measured activity by half. A lower IC50 goes with inhibition by little substance.

One data set addresses T1, CCK receptor (pancreas) (Rattus norvegicus, UniProt P30551).
T1 construct: The whole pancreas was dissected free of fat tissue and was homogenized; from tissue; host or cells: rat pancreas membranes (male Sprague-Dawley)
T1 sequence (P30551 1-444): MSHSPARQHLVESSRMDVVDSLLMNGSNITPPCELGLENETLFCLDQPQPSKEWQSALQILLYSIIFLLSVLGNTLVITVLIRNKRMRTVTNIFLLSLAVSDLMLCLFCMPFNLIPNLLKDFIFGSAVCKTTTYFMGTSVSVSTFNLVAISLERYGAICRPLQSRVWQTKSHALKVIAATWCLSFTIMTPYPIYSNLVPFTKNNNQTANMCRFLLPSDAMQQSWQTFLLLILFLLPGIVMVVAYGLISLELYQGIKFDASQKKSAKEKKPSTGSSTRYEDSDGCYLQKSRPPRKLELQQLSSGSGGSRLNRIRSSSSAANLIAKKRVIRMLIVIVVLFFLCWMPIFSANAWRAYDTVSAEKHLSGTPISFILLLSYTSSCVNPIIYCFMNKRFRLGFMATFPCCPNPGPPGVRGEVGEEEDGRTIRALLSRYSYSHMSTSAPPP
Nature of the data set: CCK Receptor Binding (Pancreas), 125I-CCK-33. To be noted: for IC50: rat pancreas membranes, 125I-CCK-33, 37° C., 30 minutes; for effect on the 125I-CCK receptor binding assay: added protease inhibitors. The arrangement: species or system rat (male Sprague-Dawley). As to the method:
1. CCK Receptor BindinG (Pancreas)
CCK-33 was radiolabeled with ^125 I-Bolton Hunter reagent (2000 Ci/mmole) as described by Sankara et al. (J. Biol. Chem. 254: 9349-9351, 1979). Receptor bindinG was performed according to Innis and Snyder (Proc. Natl. Acad. Sci. 77: 6917-6921, 1980) with the minor modification of adding the additional protease inhibitors, phenylmethane sulfonyl fluoride and o-phenanthroline. The latter two compounds have no effect on the ^125 I-CCK receptor bindinG assay.
Male Sprague-Dawley rats (200-350 g) were sacrificed by decapitation. The whole pancreas was dissected free of fat tissue and was homogenized in 20 volumes of ice-cold 50 mM, Tris HCl (pH 7.7 at 25° C.) with a Brinkmann Polytron PT 10. The homogenates were centrifuged at 48,000 g for 10 min. Pellets were resuspended in Tris Buffer, centrifuged as above and resuspended in 200 volumes of binding assay buffer (50 mM Tris HCl, pH 7.7 at 25° C., 5 mM dithiothrietol, 0.1 mM bacitracin, 1.2 mM phenylmethane sulfonyl fluoride and 0.5 mM o-phenanthroline). For the binding assay, 25 μl of buffer (for total binding) or unlabeled CCK-8 sulfate to give a final concentration of 1 μM (for nonspecific binding) or the compounds of Formula I (for determination of inhibition of ^125 I CCK binding) and 25 μl of ^125 I-CCK 33 (30,000-40,000 cpm) were added to 450 μl of the membrane suspensions in microfuge tubes. All assays were run in duplicate or triplicate. The reaction mixtures were incubated at 37° C. for 30 minutes and centrifuged in a Beckman Microfuge (4 minutes) immediately after adding 1 ml of ice-cold incubation buffer. The supernatant was aspirated and discarded, pellets were counted with a Beckman gamma 5000. For Scatchard analysis (Ann. N.Y. Acad. Sci. 51: 660, 1949), ^125 I CCK 33 was progressively diluted with increasing concentrations of CCK 33.
1. Effect of The Compounds of Formula I on ^125 I-CCK-33 receptor binding
The preferred compounds of Formula I are those which inhibited specific ^125 I-CCK-33 binding in a concentration dependent manner.
A Ki value (dissociation constant of inhibitor) of the compounds of Formula I was estimated.

Data set [1] concerns the target T2, CCK receptor (brain, cerebral cortex) (Cavia porcellus, UniProt H0VZC5).
T2 construct: Cerebral cortex was dissected and used as a receptor source; from tissue; host or cells: guinea pig cerebral cortex membranes (male Hartley)
T2 sequence (H0VZC5 1-426): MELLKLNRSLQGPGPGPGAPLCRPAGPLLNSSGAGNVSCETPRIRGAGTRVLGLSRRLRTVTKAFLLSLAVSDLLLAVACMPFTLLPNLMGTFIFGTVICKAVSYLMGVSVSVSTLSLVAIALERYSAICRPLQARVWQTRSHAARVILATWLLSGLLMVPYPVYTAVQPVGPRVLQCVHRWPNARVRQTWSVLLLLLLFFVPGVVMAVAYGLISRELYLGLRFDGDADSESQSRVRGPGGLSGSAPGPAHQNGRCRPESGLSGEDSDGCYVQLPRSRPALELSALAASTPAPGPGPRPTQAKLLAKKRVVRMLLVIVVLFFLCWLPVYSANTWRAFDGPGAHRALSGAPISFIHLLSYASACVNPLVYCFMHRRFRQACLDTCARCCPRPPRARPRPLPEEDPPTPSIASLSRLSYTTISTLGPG
In words: CCK Receptor Binding (Brain), 125I-CCK-33. The arrangement: species or system guinea pig (male Hartley). The settings on record: guinea pig cerebral cortex, 25° C., 2 hours. Here is the method: 2. CCK Receptor Binding (Brain)
CCK 33 was radiolabeled and the binding was performed according to the description for the pancreas method with modifications according to Saito et al., J. Neurochem. 37:483-490, 1981.
Male Hartley guinea pigs (300-500 g) were sacrificed by decapitation and the brains were removed and placed in ice-cold 50 mM, Tris HCl plus 7.58 g/1 Trizma-7.4 (pH 7.4 at 25° C.). Cerebral cortex was dissected and used as a receptor source. Each gram of fresh guinea pig brain tissue was homogenized in 10 ml of Tris/Trizma buffer with a Brinkman polytron PT-10. The homogenates were centrifuged at 42,000 g for 15 minutes. Pellets were resuspended in Tris Buffer, centrifuged as above and resuspended in 200 volumes of binding assay buffer (10 mM N-2 -hydroxyethyl-piperazine-N'-2-ethane sulfonic acid (HEPES), 5 mM MgCl2, 0.25 mg/ml bacitracin, 1 mM ethylene glycol-bis-(β-aminoethylether-N,N'-tetraacetic acid) (EGTA), and 0.4% bovine serum albumin (BSA)). For the binding assay, 25 μl of buffer (for total binding) or unlabeled CCK-8 sulfate to give a final concentration of 1 μm (for nonspecific binding) or the compounds of Formula I (for determination of inhibition of ^125 I CCK binding) and 25 μl of ^125 I-CCK-33 (30,000-40,000 cpm) were added to 450 μl of the membrane suspensions in microfuge tubes. All assays were run in duplicate or triplicate. The reaction mixtures were incubated at 25° C. for 2 hours and centrifuged in a Beckman Microfuge (4 minutes) immediately after adding 1 ml of ice cold incubation buffer. The supernatant was aspirated and discarded, pellets were counted with a Beckman gamma 5000.

Data set [2] concerns the target T3, gastrin receptor (gastric glands) (Cavia porcellus, UniProt H0VZC5).
T3 construct: from tissue; host or cells: guinea pig gastric mucosal glands (male Hartley)
T3 sequence (H0VZC5 1-426): T2 sequence (H0VZC5 1-426)
Nature of the data set: Gastrin Receptor Binding in Guinea Pig Gastric Glands, 125I-gastrin. The settings on record: 25° C., 30 minutes. The arrangement: species or system guinea pig (male Hartley). Here is the method:
Gastrin antagonist activity of compounds of Formula I was determined using the following assay.
Gastrin Receptor Binding in Guinea Pig Gastric Glands Preparation of guinea pig gastric mucosal glands
Guinea pig gastric mucosal glands were prepared by the procedure of Berglingh and Obrink Acta Physiol. Scand. 96: 150 (1976) with a slight modification according to Praissman et al. C. J. Receptor Res. 3: (1983). Gastric mucosa from guinea pigs ( 300-500 g body weight, male Hartley) were washed thoroughly and minced with fine scissors in standard buffer consisting of the following: 130 mM NaCl, 12 mM NaHCo3, 3 mM NaH2 PO4, 3 mM Na2 HPO4, 3 mM K2 HPO4, 2 mM MgSO4, 1 mM CaCl2, 5 mM glucose and 4 mM L-glutamine, 25 mM HEPES at pH 7.4. The minced tissues were washed and then incubated in a 37° C. shaker bath for 40 minutes with the buffer containing 0.1% collagenase and 0.1% BSA and bubbled with 95% o2 and 5% CO2. The tissues were passed twice through a 5 ml glass syringe to liberate the gastric glands, and then filtered through 200 mesh nylon. The filtered glands were centrifuged at 270 g for 5 minutes and washed twice by resuspension and centrifugation.
The washed guinea pig gastric glands prepared as above were resuspended in 25 ml of standard buffer containing 0.25 mg/ml of bacitracin. For binding studies, to 220 μl of gastric glands in triplicate tubes, 10 μl of buffer (for total binding) or gastrin (1 μM final concentration, for nonspecific binding) or test compound and 10 μl of ^125 I-gastrin (NEN, 2200 Ci/mmole, 25 pM final) or ^3 H pentagastrin (NEN 22 Ci/mmole, 1 nM final) were added. The tubes were aerated with 95% O2 and 5% CO2 and capped. The reaction mixtures after incubation at 25° C. for 30 minutes were filtered under reduced pressure on glass G/F B filters (Whatman) and immediately washed further with 4×4 ml of standard buffer containing 0.1% BSA. The radioactivity on the filters was measured using a Beckman gamma 5500 for ^125 I-gastrin or liquid scintillation counting for ^3 H-pentagastrin.

The test system of another data set is CCK. To be noted: recently reported, J. M. Howard et al.; cited from earlier work.
In a further data set the test system is proteases. To be noted: limits duration of activity; cited from earlier work.

Each structure is given as a SMILES string. Non-standard residues stand in square brackets, D forms with d. Residues, ends and D or L forms follow the SMILES beside them. *: point of attachment. sY = N[C@@H](Cc1ccc(OS(=O)(=O)O)cc1)C(=O)O; Cbz = O=C(OCc1ccccc1)*

On CCK receptor (pancreas), `O=C(CCc1ccccc1)Nc1cc2c(cn1)[nH]c1ccccc12` [Example 10, N-9H-Pyrido(3,4-b)indol-3-yl benzene Propanamide] returned an IC50 of 0.33 µM.

For the molecule `O=C(Cc1ccccc1)Nc1cc2c(cn1)[nH]c1ccccc12` [Example 9, N-9H-Pyrido(3,4-b)indol-3-yl benzene Acetamide], the IC50 in data set [1] was found to be 34 µM; on CCK receptor (pancreas), 0.04 µM; in data set [2] it was 14 µM.

For the molecule `O=C(Nc1cc2c(cn1)[nH]c1ccccc12)c1ccccc1` [Example 8, N-9H-Pyrido(3,4-b)indol-3-yl benzamide], the values for the IC50 (in data set [1]; at CCK receptor (pancreas); in data set [2]) were 223 µM, 7.1 µM and greater than 100 µM, respectively.

With `Nc1cc2c(cn1)[nH]c1ccccc12` [Example 2, 3-Amino-9H-pyrido(3,4-b)indole], the IC50 (in data set [1]; on CCK receptor (pancreas); in data set [2]) was greater than 100 µM in each case.

On to `c1cnc2c(c1)ccc1cccnc12` [o-phenanthroline, reference compound], for which, on CCK receptor (pancreas), the “effect on the 125I-CCK receptor binding assay” value was “no effect”.

As for `O=C(Nc1cc2c(cn1)[nH]c1ccccc12)c1ccc(Cl)cc1` [Example 3, 4-Chloro-N-9H-pyrido(3.4-b)indol-3-yl-benzamide], the IC50 on CCK receptor (pancreas) was determined as 3.5 µM.

With `O=C(Cc1c[nH]c2ccccc12)Nc1cc2c(cn1)[nH]c1ccccc12` [Example 7, N-9H-Pyrido(3,4-b)indol-3-yl-1H-indole 3-acetamide], the IC50 on CCK receptor (pancreas) is 0.024 µM.

As for `O=S(=O)(F)Cc1ccccc1` [phenylmethane sulfonyl fluoride, reference compound], the “effect on the 125I-CCK receptor binding assay” value on CCK receptor (pancreas) is reported as “no effect”.

Regarding `CSCC[C@H](NC(=O)[C@H](Cc1ccc(OS(=O)(=O)O)cc1)NC(=O)OCc1ccccc1)C(=O)NCC(=O)N[C@@H](Cc1c[nH]c2ccccc12)C(=O)N[C@@H](CCSC)C(=O)N[C@@H](CC(=O)O)C(N)=O` [Cbz-Tyr(SO3 H)-Met-Gly-Trp-Met-Asp-NH2] (Cbz-[sY]MGWMD-NH2), in the data set on CCK, the CCK agonist/antagonist character entry is given as “partial agonist”. For the same molecule, the degradation by proteases entry in the data set on proteases is on record as “liable to degradation by proteases”.

At CCK receptor (pancreas), `O=C(Nc1ccc(Cl)cc1)Nc1cc2c(cn1)[nH]c1ccccc12` [Example 4, N-(4-Chlorophenyl)-N^1 9-H-pyrido(3,4-b)indol-3-yl-urea] registered an IC50 of 0.085 µM.

In the case of `O=C(Nc1cc2c(cn1)[nH]c1ccccc12)c1cccs1` [Example 5, N-9H-Pyrido(3,4-b)indol-3-yl 2 thiophene Carboxamide], the results for the IC50 (in data set [1]; at CCK receptor (pancreas); in data set [2]) were roughly 130 µM, 9.8 µM and greater than 100 µM, respectively.

On to `Cn1c(C(=O)Nc2cc3c(cn2)[nH]c2ccccc23)cc2ccccc21` [Example 6, N-9H-Pyrido(3,4-b)indol-3-yl-1-methyl-1H-indole-2-carboxamide], for which the values for the IC50 (in data set [1]; at CCK receptor (pancreas); in data set [2]) were greater than 100 µM, 0.71 µM and greater than 100 µM, respectively.
